Data set [1] in a line: Drug uptake in human A549 cells assessed as blue shift in absorption spectrum at 5 uM by UV-visible absorption spectral analysis. Format: ADME, cell-based. To be noted: a549, 5 µM.
A short description of data set [2]: Drug uptake in human A549 cells assessed as maximum emission peaks at 430 nm at 5 uM by fluorescence emission spectral analysis. The format is ADME, cell-based. The following applies: a549, 5 µM.
Data set [3] in a line: Drug uptake in human A549 cells assessed as blue fluorescence at 5 uM after 12 hrs by confocal laser scanning microscopic analysis. Format: ADME, cell-based. The following applies: a549, 12 h.
The test system of data set [4] is A549. The data set is described as follows: Antiproliferative activity against human A549 cells assessed as reduction in cell viability after 72 hrs by SRB assay. Format: functional, cell-based. The following applies: A549, 72 h. On the technique in general: In SRB staining, fixed cells bind dye roughly in proportion to their protein.
The test system of data set [5] is HCT-116. The data set is described as follows: Antiproliferative activity against human HCT116 cells assessed as reduction in cell viability after 72 hrs by SRB assay. Format: functional, cell-based. To be noted: HCT-116, 72 h.
In the next data set the test system is MIA PaCa-2. The data set is described as follows: Antiproliferative activity against human MIAPaCa2 cells assessed as reduction in cell viability after 72 hrs by SRB assay. Format: functional, cell-based. To be noted: MIA PaCa-2, 72 h.
Another data set deals with CAPAN-1. The data set is described as follows: Antiproliferative activity against human Capan1 cells assessed as reduction in cell viability after 72 hrs by SRB assay. The format is functional, cell-based. The following applies: CAPAN-1, 72 h.
Another data set relates to L02. The data set is described as follows: Cytotoxicity agains human HL7702 cells assessed as reduction in cell viability after 72 hrs by SRB assay. To be noted: L02, 72 h. The format is cell-based.
For data set [6], the system named is A549. The data set is described as follows: Downregulation of TOP1 expression in human A549 cells after 24 hrs by Western blot analysis. The format is functional, cell-based. (In general: Immunoblotting shows a protein as a band on a membrane.)
For data set [7], the system named is HCT-116. The data set is described as follows: Downregulation of TOP1 expression in human HCT116 cells after 24 hrs by Western blot analysis. Format: functional, cell-based.
Data set [8] has as its system Mus musculus. The data set is described as follows: In vivo inhibition of HSP90 in mouse xenografted with human Capan1 cells assessed as increase in HSP70 protein expression at 36 mg/kg, iv for every 2 days measured at 2 hrs post last dose by Western blot analysis. Format: functional, organism-based. In general terms: Xenograft models place foreign cells or tissue in a host animal.

For data set [9], the system named is Mus musculus. The data set is described as follows: In vivo inhibition of HSP90 in mouse xenografted with human Capan1 cells assessed as decrease in AKT protein expression at 36 mg/kg, iv for every 2 days measured at 2 hrs post last dose by Western blot analysis. Format: functional, organism-based.
The nature of data set [10]: Prodrug release in tumor of mouse xenografted with human Capan1 cells assessed as increase in 7-ethyl-10-hydroxycamptothecin level at 36 mg/kg, iv after 24 hrs by LC-MS/MS analysis. Format: ADME, organism-based, Neoplasm. To be noted: in vivo.
The nature of data set [11]: Prodrug release in mouse plasma xenografted with human HCT116 cells assessed as increase in 7-ethyl-10-hydroxycamptothecin level at 15 mg/kg, iv administered as single dose and measured after 30 mins to 72 hrs by LC-MS/MS analysis. Format: ADME, organism-based. The following applies: in vivo.
The nature of data set [12]: Prodrug release in tumor of mouse xenografted with human HCT116 cells assessed as increase in 7-ethyl-10-hydroxycamptothecin level at 15 mg/kg, iv administered as single dose by LC-MS/MS analysis. Format: ADME, organism-based, Neoplasm. To be noted: in vivo.
Data set [13] has as its system Mus musculus. The data set is described as follows: In vivo inhibition of topoisomerase 1 in mouse xenografted with human Capan1 cells assessed as increase in phosphorylated KAP1 expression at 36 mg/kg, iv for every 2 days measured at 2 hrs post last dose by Western blot analysis. Format: functional, organism-based.
Data set [14] deals with Mus musculus. The data set is described as follows: Down regulation of topoisomerase 1 expression in mouse xenografted with human Capan1 cells at 36 mg/kg, iv for every 2 days measured at 2 hrs post last dose by Western blot analysis. Format: functional, organism-based.

Active and inactive are the calls of the source. The calls are words filed in the database; no cut-off is given here.

What is called IC50 is the concentration needed to halve the response being measured.

`CCc1c2c(nc3ccc(OC(=O)N4CCC(N5CCCCC5)CC4)cc13)-c1cc3c(c(=O)n1C2)COC(=O)[C@]3(O)CC` [IRINOTECAN]: the Drug uptake entry was “Active” in data set [1], “Active” in [2] and “Not Active” in data set [3]. Also, the concentration for half-maximal inhibition (IC50) in the data set on A549 [4] came to 1560 nM; in the data set on HCT-116 [5] it was 498 nM; in the data set on MIA PaCa-2, 1330 nM; in the data set with CAPAN-1 it was 1120 nM; in the data set on L02, 1300 nM. Besides, the TOP1 downregulation result in the data set with A549 [6] was “Active”. Moreover, the inhibition entry in the data set on HCT-116 [7], in the data set on Mus musculus [13] and in the data set with Mus musculus [14] was “Active” in each case. In addition, the inhibition entry with Mus musculus [8] and in the data set on Mus musculus [9] was “inactive” each time. Besides, the Drug metabolism result is given as “Metabolite_Notdetected” in data set [10], “Metabolite_Detected” in [11] and “Metabolite_Detected” in data set [12].
